System: subjects with moderate-to-severe plaque psoriasis
Assay: PASI response, Example 2 long-term extension to Week 52
Type: in vivo, human
Details: for Change from Baseline in PASI Total Score, LSMean: MMRM model
From the text: Described below is a multicenter, long-term extension (LTE), double-blind, dose-ranging, parallel group interventional study in participants from Example 1 to evaluate the long-term efficacy and safety of the hydrochloride salt of the compound of Formula (I) for the treatment of moderate-to-severe plaque psoriasis. Patients from Example 1 continued to receive the same dose of the compound of Formula (I) for an additional 36-week treatment period with a 4-week safety follow up period after the last administration of the compound of Formula (I). Patients randomized to placebo in Example 1 received the compound of Formula (I) at a dose of 100 mg QD starting at Week 16 of Example 1 (FIG. 21).
The primary efficacy endpoint is the proportion of participants achieving a PASI 75 response at Week 52, defined as at least a […] reduction from baseline PASI of Example 1. For primary analysis, composite strategy (non-responder imputation) was applied to address intercurrent event #1 (Discontinuation of study intervention due to lack of efficacy or due to an AE of worsening of psoriasis) and […] (initiation of a protocol-prohibited medication or therapy that could improve psoriasis); treatment policy strategy (observed data) was applied to intercurrent event #3 (Discontinuation of study intervention due to other reasons). Participants with missing data after application of ICEs are considered as non-responders.
Since there was no control arm (after week 16), in this primary analysis, only the proportion of participants who achieved a PASI75 response and its […] confidence interval at Week 52 were summarized for each intervention group.

[1] = Placebo → 100 mg QD, crossed over at or after Week 16, Week 20
[2] = Placebo → 100 mg QD, crossed over at or after Week 16, Week 24
[3] = Placebo → 100 mg QD, crossed over at or after Week 16, Week 28
[4] = Placebo → 100 mg QD, crossed over at or after Week 16, Week 32
[5] = Placebo → 100 mg QD, crossed over at or after Week 16, Week 40
[6] = Placebo → 100 mg QD, crossed over at or after Week 16, Week 52
[7] = Placebo → 100 mg QD, crossed over at or after Week 16, Week 52, non-responder imputation

CC(=O)NCCCC[C@@H]1NC(=O)[C@H](Cc2c[nH]c3c(C)cccc23)NC(=O)[C@H]([C@@H](C)O)NC(=O)[C@H](CC(N)=O)NC(=O)[C@@H](NC(C)=O)C(C)(C)SSC(C)(C)[C@@H](C(=O)N[C@@H](Cc2ccc(OCCN)cc2)C(=O)N[C@@H](Cc2ccc3ccccc3c2)C(=O)NC2(C(=O)N[C@@H](CCC(=O)O)C(=O)N[C@@H](CC(N)=O)C(=O)N[C@@H](Cc3cccnc3)C(=O)N(C)CC(N)=O)CCOCC2)NC1=O [IL-23 receptor antagonist peptide, Ac-[Pen]*-N-T-[W(7-Me)]-[Lys(Ac)]-[Pen]*-Phe[4-(2-aminoethoxy)]-[2-Nal]-[THP]-E-N-[3-Pal]-Sarc-NH2 (*[Pen]-[Pen]* formdisulfidebond)]
Subjects achieving PASI 75 (100 mg QD, Week 52): 28 (65.1%) | Change from Baseline in PASI Total Score, LSMean (100 mg QD, Week 52): −15.5 | Subjects achieving ≥75% Improvement at Week 52 (PASI 75 Response) (100 mg QD, Week 52, non-responder imputation): 28 (65.1%) | Change from Baseline in PASI Total Score, Mean [1]: −10.44 | Change from Baseline in PASI Total Score, Median [1]: −10.35 | Change from Baseline in PASI Total Score, LSMean [1]: −10.3 | Change from Baseline in PASI Total Score, Mean [2]: −13.26 | Change from Baseline in PASI Total Score, Median [2]: −14.10 | Change from Baseline in PASI Total Score, LSMean [2]: −13.2 | Change from Baseline in PASI Total Score, Mean [3]: −13.77 | Change from Baseline in PASI Total Score, Median [3]: −14.10 | Change from Baseline in PASI Total Score, LSMean [3]: −13.7 | Change from Baseline in PASI Total Score, Mean [4]: −14.14 | Change from Baseline in PASI Total Score, Median [4]: −14.75 | Change from Baseline in PASI Total Score, LSMean [4]: −13.7 | Change from Baseline in PASI Total Score, Mean [5]: −13.73 | Change from Baseline in PASI Total Score, Median [5]: −14.85 | Change from Baseline in PASI Total Score, LSMean [5]: −13.6 | Change from Baseline in PASI Total Score, Mean [6]: −14.15 | Change from Baseline in PASI Total Score, Median [6]: −15.30 | Change from Baseline in PASI Total Score, LSMean [6]: −14.0 | Subjects achieving 100% Improvement at Week 52 (PASI) [7]: 12 (34.3%) | Subjects achieving ≥75% Improvement at Week 52 (PASI 75 Response) [7]: 23 (65.7%) | Subjects achieving ≥90% Improvement at Week 52 (PASI) [7]: 20 (57.1%) | PASI ≥75% Improvement, subjects (%) (Week 1, 50 mg QD, N=43): (4.7%) | PASI ≥75% Improvement, subjects (%) (Week 1, 100 mg BID, N=42): (2.4%) | PASI ≥90% Improvement, subjects (%) (Week 1, 100 mg BID, N=42): (2.4%) | PASI ≥75% Improvement, subjects (%) (Week 1, 100 mg QD, N=43): (2.3%) | PASI ≥75% Improvement, subjects (%) (Week 2, 50 mg QD, N=43): (4.7%) | PASI ≥75% Improvement, subjects (%) (Week 2, 100 mg BID, N=42): (4.8%) | PASI ≥90% Improvement, subjects (%) (Week 2, 100 mg BID, N=42): (2.4%) | PASI ≥75% Improvement, subjects (%) (Week 2, 100 mg QD, N=43): (2.3%) | PASI ≥75% Improvement, subjects (%) (Week 4, 25 mg BID, N=41): (4.9%) | PASI ≥75% Improvement, subjects (%) (Week 4, 25 mg QD, N=43): (9.3%) | PASI ≥90% Improvement, subjects (%) (Week 4, 25 mg QD, N=43): (2.3%) | PASI ≥75% Improvement, subjects (%) (Week 4, 50 mg QD, N=43): (16.3%) | PASI ≥75% Improvement, subjects (%) (Week 4, 100 mg BID, N=42): (23.8%) | PASI ≥90% Improvement, subjects (%) (Week 4, 100 mg BID, N=42): (9.5%) | PASI ≥75% Improvement, subjects (%) (Week 4, 100 mg QD, N=43): (16.3%) | PASI ≥90% Improvement, subjects (%) (Week 4, 100 mg QD, N=43): (4.7%) | PASI 100% Improvement, subjects (%) (Week 8, 25 mg BID, N=41): (2.4%) | PASI ≥75% Improvement, subjects (%) (Week 8, 25 mg BID, N=41): (19.5%) | PASI ≥90% Improvement, subjects (%) (Week 8, 25 mg BID, N=41): (7.3%) | PASI 100% Improvement, subjects (%) (Week 8, 25 mg QD, N=43): (2.3%) | PASI ≥75% Improvement, subjects (%) (Week 8, 25 mg QD, N=43): (23.3%) | PASI ≥90% Improvement, subjects (%) (Week 8, 25 mg QD, N=43): (14.0%) | PASI 100% Improvement, subjects (%) (Week 8, 50 mg QD, N=43): (2.3%) | PASI ≥75% Improvement, subjects (%) (Week 8, 50 mg QD, N=43): (39.5%) | PASI ≥90% Improvement, subjects (%) (Week 8, 50 mg QD, N=43): (18.6%) | PASI 100% Improvement, subjects (%) (Week 8, 100 mg BID, N=42): (11.9%) | PASI ≥75% Improvement, subjects (%) (Week 8, 100 mg BID, N=42): (47.6%) | PASI ≥90% Improvement, subjects (%) (Week 8, 100 mg BID, N=42): (28.6%) | PASI 100% Improvement, subjects (%) (Week 8, 100 mg QD, N=43): (4.7%) | PASI ≥75% Improvement, subjects (%) (Week 8, 100 mg QD, N=43): (44.2%) | PASI ≥90% Improvement, subjects (%) (Week 8, 100 mg QD, N=43): (20.9%) | PASI 100% Improvement, subjects (%) (Week 12, 25 mg BID, N=41): (4.9%) | PASI ≥75% Improvement, subjects (%) (Week 12, 25 mg BID, N=41): (51.2%) | PASI ≥90% Improvement, subjects (%) (Week 12, 25 mg BID, N=41): (19.5%) | PASI 100% Improvement, subjects (%) (Week 12, 25 mg QD, N=43): (4.7%) | PASI ≥75% Improvement, subjects (%) (Week 12, 25 mg QD, N=43): (34.9%) | PASI ≥90% Improvement, subjects (%) (Week 12, 25 mg QD, N=43): (18.6%) | PASI 100% Improvement, subjects (%) (Week 12, 50 mg QD, N=43): (4.7%) | PASI ≥75% Improvement, subjects (%) (Week 12, 50 mg QD, N=43): (51.2%) | PASI ≥90% Improvement, subjects (%) (Week 12, 50 mg QD, N=43): (34.9%) | PASI 100% Improvement, subjects (%) (Week 12, 100 mg BID, N=42): (33.3%) | PASI ≥75% Improvement, subjects (%) (Week 12, 100 mg BID, N=42): (73.8%) | PASI ≥90% Improvement, subjects (%) (Week 12, 100 mg BID, N=42): (52.4%) | PASI 100% Improvement, subjects (%) (Week 12, 100 mg QD, N=43): (14.0%) | PASI ≥75% Improvement, subjects (%) (Week 12, 100 mg QD, N=43): (62.8%) | PASI ≥90% Improvement, subjects (%) (Week 12, 100 mg QD, N=43): (39.5%) | PASI 100% Improvement, subjects (%) (Week 16, 25 mg BID, N=41): (9.8%) | PASI ≥75% Improvement, subjects (%) (Week 16, 25 mg BID, N=41): (51.2%) | PASI ≥90% Improvement, subjects (%) (Week 16, 25 mg BID, N=41): (26.8%) | PASI 100% Improvement, subjects (%) (Week 16, 25 mg QD, N=43): (11.6%) | PASI ≥75% Improvement, subjects (%) (Week 16, 25 mg QD, N=43): (37.2%) | PASI ≥90% Improvement, subjects (%) (Week 16, 25 mg QD, N=43): (25.6%) | PASI 100% Improvement, subjects (%) (Week 16, 50 mg QD, N=43): (25.6%) | PASI ≥75% Improvement, subjects (%) (Week 16, 50 mg QD, N=43): (58.1%) | PASI ≥90% Improvement, subjects (%) (Week 16, 50 mg QD, N=43): (51.2%) | PASI 100% Improvement, subjects (%) (Week 16, 100 mg BID, N=42): (40.5%) | PASI ≥75% Improvement, subjects (%) (Week 16, 100 mg BID, N=42): (78.6%) | PASI ≥90% Improvement, subjects (%) (Week 16, 100 mg BID, N=42): (59.5%) | PASI 100% Improvement, subjects (%) (Week 16, 100 mg QD, N=43): (23.3%) | PASI ≥75% Improvement, subjects (%) (Week 16, 100 mg QD, N=43): (65.1%) | PASI ≥90% Improvement, subjects (%) (Week 16, 100 mg QD, N=43): (46.5%) | PASI 100% Improvement, subjects (%) (Week 20, 25 mg BID, N=41): (19.5%) | PASI ≥75% Improvement, subjects (%) (Week 20, 25 mg BID, N=41): (56.1%) | PASI ≥90% Improvement, subjects (%) (Week 20, 25 mg BID, N=41): (34.1%) | PASI 100% Improvement, subjects (%) (Week 20, 25 mg QD, N=43): (14.0%) | PASI ≥75% Improvement, subjects (%) (Week 20, 25 mg QD, N=43): (48.8%) | PASI ≥90% Improvement, subjects (%) (Week 20, 25 mg QD, N=43): (30.2%) | PASI 100% Improvement, subjects (%) (Week 20, 50 mg QD, N=43): (18.6%) | PASI ≥75% Improvement, subjects (%) (Week 20, 50 mg QD, N=43): (62.8%) | PASI ≥90% Improvement, subjects (%) (Week 20, 50 mg QD, N=43): (48.8%) | PASI 100% Improvement, subjects (%) (Week 20, 100 mg BID, N=42): (40.5%) | PASI ≥75% Improvement, subjects (%) (Week 20, 100 mg BID, N=42): (81.0%)
